Assay results from US7803930B2, “Antisense modulation of apolipoprotein B-expression” (Isis Pharmaceuticals, Inc., priority 2002, dated 2010).
In the oligonucleotide strings, read from the 5' end, every base follows the letter of its sugar. An asterisk marks phosphorothioate; unmarked linkages are phosphodiester. Other units and linkages are bracketed, terminal groups are in braces. A string of capitals states the bases alone. e = 2'-O-(2-methoxyethyl) (MOE); [5mC] = 5-methylcytosine; d = 2'-deoxy (DNA)

What was measured:
[1] = Toxicity in C57BL/6 mice, two weeks (Example 48): liver enzyme levels, body, liver and spleen weight; format: in vivo, mouse; parameters: Weight BODY / Weight LIVER / Weight SPLEEN: unit not given here; conditions: 25 mg/kg i.p. twice a week
Description: C57BL/6 mice were divided into two groups—one group receiving oligonucleotide treatment and control animals receiving saline treatment. After overnight fasting, mice were dosed intraperitoneally twice a week with saline or 25 mg/kg of one of several oligonucleotides for two weeks. The antisense oligonucleotides used in the present study were ISIS 233172 (SEQ ID NO: 835) and ISIS 233175 (SEQ ID NO: 838), both targeted to rabbit apolipoprotein B, and ISIS 281625 (SEQ ID NO: 224), ISIS 301012 (SEQ ID NO: 247), and ISIS 301027 (SEQ ID NO: 262), targeted to human apolipoprotein B. At study termination and forty eight hours after the final injections, animals were sacrificed and evaluated for liver enzyme levels, body weight, liver weight, and spleen weight.

[2] = system: Cynomolgous monkey apolipoprotein B mRNA; assay: Apolipoprotein B mRNA in primary Cynomolgous monkey hepatocytes, real-time PCR; format: cell-based; conditions: primary Cynomolgous monkey hepatocytes
Description: Antisense inhibition by ISIS 301012 was compared to that of ISIS 326358, which is a perfect match to the Cynomolgous monkey apolipoprotein B sequence to which ISIS 301012 hybridizes. The compounds were analyzed for their effect on Cynomolgous monkey apolipoprotein B mRNA levels in primary Cynomolgous monkey hepatocytes purchased from In Vitro Technologies ([…].). Pre-plated primary Cynonomolgous monkey hepatocytes were purchased from InVitro Technologies (Baltimore, Md.). Cells were cultured in high-glucose DMEM (Invitrogen Corporation, Carlsbad, Calif.) supplemented with 10% fetal bovine serum (Invitrogen Corporation, Carlsbad, Calif.), 100 units/mL and 100 μg/mL streptomycin (Invitrogen Corporation, Carlsbad, Calif.).
Primary Cynomolgous monkey hepatocytes were treated with 10, 50, 150 or 300 nM of antisense oligonucleotides for 48 hours. ISIS 113529 (SEQ ID NO: 859) was used as a control oligonucleotide. Untreated cells also served as a control. Cynomolgous monkey apolipoprotein B mRNA levels were quantitated by real-time PCR using the human apolipoprotein B and GAPDH primers and probes described by other examples herein. The results, shown in Table 44, are the average of 6 experiments and are expressed as percent inhibition of apolipoprotein B mRNA normalized to untreated control cells.
In a further embodiment of the invention, antisense inhibition by ISIS 281625 was compared to that by ISIS 315089, which is a perfect match to the Cynomolgous monkey apolipoprotein B sequence to which ISIS 281625 hybridizes. Primary Cynomolgous monkey hepatocytes, cultured as described herein, were treated with 10, 50, 150 or 300 nM of ISIS 315089 or ISIS 281625 for 24 hours. Cells were treated with the control oligonucleotide ISIS 13650 (SEQ ID NO: 806) at 150 and 300 nM or ISIS 113529 (SEQ ID NO: 859) at 300 nM. Untreated cells also served as a control. Cynomolgous monkey apolipoprotein B mRNA levels in primary Cynomolgous monkey hepatocytes was quantitated using real-time PCR with human primers and probe as described by other examples herein. The results, shown in Table 46, are the average of 3 experiments and are expressed as percent inhibition of apolipoprotein B mRNA normalized to untreated control cells.
ISIS 271009 (SEQ ID NO: 319) and ISIS 301027 (SEQ ID NO: 262) were also tested for their effects on apolipoprotein B mRNA and protein expression in Cynomolgous primary hepatoctyes. Cells, cultured as described herein, were treated with 10, 50 and 150 nM of ISIS 271009 or ISIS 301027 for 24 hours. Cells were treated with the control oligonucleotide ISIS 113529 (SEQ ID NO: 859) at 150 nM. Untreated cells also served as a control. Cynomolgous monkey apolipoprotein B mRNA levels in primary Cynomolgous monkey hepatocytes was quantitated using real-time PCR with human primers and probe as described by other examples herein. The results, shown in Table 48, are the average of 2 experiments and are expressed as percent inhibition of apolipoprotein B mRNA normalized to untreated control cells.

apolipoprotein B protein = assay: Apolipoprotein B protein secreted from primary Cynomolgous monkey hepatocytes, ELISA; format: cell-based; conditions: primary Cynomolgous monkey hepatocytes
Description: Apolipoprotein B protein secreted from primary Cynomolgous hepatocytes treated with 150 and 300 nM of oligonucleotide was measured by ELISA using an apolipoprotein B protein specific kit (ALerCHEK Inc., Portland, Me.). Each result represents the average of 3 experiments.
Apolipoprotein B protein secreted primary Cynomolgous hepatocytes treated with 50 and 150 nM of ISIS 315089 and ISIS 281625 was measured by ELISA using an apolipoprotein B protein specific kit (ALerCHEK Inc., Portland, Me.). Each result represents the average of 3 experiments.
Apolipoprotein B protein secreted from primary Cynomolgous hepatocytes treated with 50 and 150 nM of ISIS 271009 and ISIS 301027 was measured by ELISA using an apolipoprotein B protein specific kit (ALerCHEK Inc., Portland, Me.). Each result represents the average of 3 experiments.

[3] = system: rabbit apolipoprotein B mRNA; assay: Inhibition of rabbit apolipoprotein B mRNA levels in primary rabbit hepatocytes, real-time PCR; format: cell-based; parameters: % INHIB of rabbit apolipoprotein B mRNA levels: concentration or dose not given beside the values; conditions: for Percent Inhibition of rabbit apolipoprotein B mRNA levels: averages from two experiments
Excerpt: Primary rabbit hepatocytes were purchased from Invitro Technologies (Gaithersburg, Md.) and maintained in Dulbecco's modified Eagle's medium (Gibco). When purchased, the cells had been seeded into 96-well plates for use in RT-PCR analysis and were confluent.
In accordance with the present invention, a series of oligonucleotides was designed to target different regions of rabbit apolipoprotein B, using published sequences (GenBank accession number X07480.1, incorporated herein as SEQ ID NO: 808, GenBank accession number M17780.1, incorporated herein as SEQ ID NO: 809, and a sequence was derived using previously described primers (Tanaka, Journ. Biol. Chem., 1993,268, 12713-12718) representing an mRNA of the rabbit apolipoprotein B, incorporated herein as SEQ ID NO: 810). “Target site” indicates the first (5′-most) nucleotide number on the particular target sequence to which the oligonucleotide binds. All compounds in Table 21 are chimeric oligonucleotides (“gapmers”) 20 nucleotides in length, composed of a central “gap” region consisting of ten 2′-deoxynucleotides, which is flanked on both sides (5′ and 3′ directions) by five-nucleotide “wings”. The wings are composed of 2′-methoxyethyl (2′-MOE)nucleotides. The internucleoside (backbone) linkages are phosphorothioate (P═S) throughout the oligonucleotide. All cytidine residues are 5-methylcytidines. The compounds were analyzed for their effect on rabbit apolipoprotein B mRNA levels in primary rabbit hepatocytes by quantitative real-time PCR as described in other examples herein. Primary rabbit hepatocytes were treated with 150 nM of the compounds in Table 21. For rabbit apolipoprotein B the PCR primers were: • forward primer: AAGCACCCCCAATGTCACC (SEQ ID NO: 811) • reverse primer: […] (SEQ ID NO: 812) and the PCR probe was: FAM-[…]-TAMRA (SEQ ID NO: 813) where FAM (PE-Applied Biosystems, Foster City, Calif.) is the fluorescent reporter dye) and TAMRA (PE-Applied Biosystems, Foster City, Calif.) is the quencher dye. Data are averages from two experiments. If present, “N.D.” indicates “no data”.
In accordance with the present invention, a subset of the antisense oligonuclotides in Example 42 was further investigated in dose-response studies. Treatment doses were 10, 50, 150 and 300 nM. ISIS 233160 (SEQ ID NO: 824), ISIS 233166 (SEQ ID NO: 830), ISIS 233172 (SEQ ID NO: 835), ISIS 233175 (SEQ ID NO: 838), and ISIS 233183 (SEQ ID NO: 846) were analyzed for their effect on rabbit apolipoprotein B mRNA levels in primary rabbit hepatocytes by quantitative real-time PCR as described in other examples herein.

Substance	% INHIB of rabbit apolipoprotein B mRNA levels [3] [%]	Percent Inhibition of rabbit apolipoprotein B mRNA levels ([3]; 10 nM) [%]	Percent Inhibition of rabbit apolipoprotein B mRNA levels ([3]; 50 nM) [%]	Percent Inhibition of rabbit apolipoprotein B mRNA levels ([3]; 150 nM) [%]	Percent Inhibition of rabbit apolipoprotein B mRNA levels ([3]; 300 nM) [%]	Liver Enzymes ALT [1] [IU/L]	Liver Enzymes AST [1] [IU/L]	Weight BODY [1]	Weight LIVER [1]	Weight SPLEEN [1]	other results
ISIS 233175: SEQ ID NO: 838, targeted to rabbit apolipoprotein B (antisense eG*eA*e[5mC]*e[5mC]*eT*dT*dG*dA*dG*dT*dA*dG*dA*dT*dT*e[5mC]*e[5mC]*eT*eG*eG)											levels of liver enzymes relative to saline treatment [1]: drastically increased
326358 (antisense eG*e[5mC]*e[5mC]*eT*e[5mC]*dA*dG*dT*d[5mC]*dT*dG*d[5mC]*dT*dT*dT*eA*e[5mC]*eA*e[5mC]*e[5mC]) [compound 326358]											% Inhibition of apolipoprotein B mRNA ([2]; 10 nM, 24 hours): 35%; % Inhibition of apolipoprotein B mRNA ([2]; 10 nM, 48 hours): 85%; % Inhibition of apolipoprotein B mRNA ([2]; 50 nM, 24 hours): 66%; % Inhibition of apolipoprotein B mRNA ([2]; 50 nM, 48 hours): 88%; % Inhibition of apolipoprotein B mRNA ([2]; 150 nM, 24 hours): 61%; % Inhibition of apolipoprotein B mRNA ([2]; 150 nM, 48 hours): 82%; % Inhibition of apolipoprotein B mRNA ([2]; 300 nM, 24 hours): 64%; % Inhibition of apolipoprotein B mRNA ([2]; 300 nM, 48 hours): 87%; % Reduction in secreted apolipoprotein B protein (apolipoprotein B protein; 150 nM, 24 hours): 21%; % Reduction in secreted apolipoprotein B protein (apolipoprotein B protein; 150 nM, 48 hours): 29%; % Reduction in secreted apolipoprotein B protein (apolipoprotein B protein; 300 nM, 24 hours): 17%; % Reduction in secreted apolipoprotein B protein (apolipoprotein B protein; 300 nM, 48 hours): 35%
233172 (antisense eA*eT*eG*eG*eA*dA*dG*dA*d[5mC]*dT*dG*dG*d[5mC]*dA*dG*e[5mC]*eT*e[5mC]*eT*eA) [compound 233172]	86	60	76	81	84	43.3	94.3	21.3	1.3	0.1	
233175 (antisense eG*eA*e[5mC]*e[5mC]*eT*dT*dG*dA*dG*dT*dA*dG*dA*dT*dT*e[5mC]*e[5mC]*eT*eG*eG) [compound 233175]	90	67	85	90	93	230.2	346.7	21.5	1.4	0.1	
